Results on one compound are retold here after patent US8557820B2, “Crystal modifications of transmission dyes” (BASF SE, priority 2007, dated 2013).

Structures are written as SMILES.

This series in a line: Thermodynamic / phase stability of the crystal modification at 25° C. In kind it is physicochemical. As for the experimental part:
This modification is therefore suitable in dispersions comprising micro-fine particles.
Advantageously, dispersions comprising this specific crystal modification are not subjected to phase transformations resulting in a crystal growth.
5 g of the compound obtained in Example A2 (modification (B)) and 5 g of the compound of formula (1) obtained in Example A1 are elutriated in 50 g N-methylpyrrolidone at 25° C.
The suspension is stirred for 3 days at 25° C.

In the case of `CCN(CC)c1ccc(C(=O)c2ccccc2C(=O)N2CCN(C(=O)c3ccccc3C(=O)c3ccc(N(CC)CC)cc3O)CC2)c(O)c1` [crystal modification (C)], the “thermodynamic stability of the crystal modification” value was “thermodynamically stable”.
